Measurements reported in patent US11306081B2, “Phenylacetamides as inhibitors of rock” (BRISTOL-MYERS SQUIBB COMPANY, priority 2017, dated 2022).

Each molecule was assayed against ROCK2 (Homo sapiens (Human), UniProt O75116) (assay: ROCK assay (LABCHIP 3000 peptide phosphorylation assay)). Conditions: 5 μM ATP, 1.5 μM peptide substrate, dose-response.
Type: biochemical
In short: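 Rho kinase variants in 20 mM HEPES pH 7.5, 20 mM MgCl2, 0.015% Brij-35, 4 mM DTT, 5 μM ATP, 1.5 μM FITC-AHA-AKRRRLSSLRA-OH peptide; DMSO <2%. EDTA-stopped; phosphorylated/non-phosphorylated peptide separated by microfluidic LabChip readout. Dose-response inhibition curve-fitted to give IC50.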

Chain of ROCK2 (O75116 whole entry, species assumed): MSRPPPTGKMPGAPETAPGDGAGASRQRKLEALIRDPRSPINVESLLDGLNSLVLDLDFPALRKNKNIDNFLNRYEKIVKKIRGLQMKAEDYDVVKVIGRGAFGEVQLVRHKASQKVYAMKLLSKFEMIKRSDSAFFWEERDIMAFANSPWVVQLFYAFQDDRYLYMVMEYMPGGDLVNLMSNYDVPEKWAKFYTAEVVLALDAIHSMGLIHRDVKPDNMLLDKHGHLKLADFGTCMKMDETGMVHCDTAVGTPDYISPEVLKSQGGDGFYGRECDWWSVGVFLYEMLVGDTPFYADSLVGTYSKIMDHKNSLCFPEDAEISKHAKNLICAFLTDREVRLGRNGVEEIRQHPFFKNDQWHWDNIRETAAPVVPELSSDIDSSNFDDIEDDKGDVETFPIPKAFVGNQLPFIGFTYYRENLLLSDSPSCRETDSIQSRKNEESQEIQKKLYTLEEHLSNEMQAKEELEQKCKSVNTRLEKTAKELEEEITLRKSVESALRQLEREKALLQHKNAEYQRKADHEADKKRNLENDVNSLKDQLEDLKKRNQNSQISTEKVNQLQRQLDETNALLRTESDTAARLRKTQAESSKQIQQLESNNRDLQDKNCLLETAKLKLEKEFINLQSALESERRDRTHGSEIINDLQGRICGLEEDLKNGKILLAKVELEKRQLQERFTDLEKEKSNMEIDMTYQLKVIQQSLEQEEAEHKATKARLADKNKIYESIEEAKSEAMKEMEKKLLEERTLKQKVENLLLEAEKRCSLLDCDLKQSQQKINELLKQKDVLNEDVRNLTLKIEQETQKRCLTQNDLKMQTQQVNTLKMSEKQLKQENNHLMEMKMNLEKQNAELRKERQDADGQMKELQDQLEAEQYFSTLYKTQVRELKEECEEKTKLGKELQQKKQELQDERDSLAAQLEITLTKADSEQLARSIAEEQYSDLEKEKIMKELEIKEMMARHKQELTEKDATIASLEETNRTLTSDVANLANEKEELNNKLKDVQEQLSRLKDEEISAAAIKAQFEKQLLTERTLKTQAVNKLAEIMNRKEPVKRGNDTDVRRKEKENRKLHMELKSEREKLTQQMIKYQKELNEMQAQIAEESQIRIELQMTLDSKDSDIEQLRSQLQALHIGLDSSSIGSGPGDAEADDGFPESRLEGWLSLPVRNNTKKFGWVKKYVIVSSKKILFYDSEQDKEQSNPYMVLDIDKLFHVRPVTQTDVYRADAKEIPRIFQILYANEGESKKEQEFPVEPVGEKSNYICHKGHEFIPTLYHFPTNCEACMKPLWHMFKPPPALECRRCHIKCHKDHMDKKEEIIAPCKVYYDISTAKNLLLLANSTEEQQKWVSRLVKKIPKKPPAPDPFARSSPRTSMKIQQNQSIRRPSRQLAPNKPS

Row | IC50 | SMILES
1 | 18 nM | Cn1nc(C(F)(F)F)cc1-c1ccc2sc(NC(=O)Cc3ccc(Oc4ncccc4C(N)=O)c(F)c3)nc2c1 [Example 006, 2-(2-fluoro-4-(2-((5-(1-methyl-3-(trifluoromethyl)-1H-pyrazol-5-yl)benzo[d]thiazol-2-yl)amino)-2-oxoethyl)phenoxy) nicotinamide]
2 | 12 nM | Cc1sc(NC(=O)Cc2ccc(Oc3ncccc3C(N)=O)c(Cl)c2)nc1-c1cccnc1F [Example 102, 2-(2-chloro-4-(2-((4-(2-fluoropyridin-3-yl)-5-methylthiazol-2-yl)amino)-2-oxoethyl)phenoxy) nicotinamide]
3 | 177 nM | NC(=O)c1cccnc1Oc1ccc(CC(=O)Nc2nc(-c3ccccc3)cs2)cc1 [Example 052, 2-(4-(2-oxo-2-((4-phenylthiazol-2-yl)amino)ethyl)phe-noxy)nicotinamide]
4 | 600 nM | Cc1ccc2[nH]c(NC(=O)Cc3ccc(Oc4ncccc4C(N)=O)cc3)nc2c1 [Example 068, 2-(4-(2-((5-methyl-1H-benzo[d]imidazol-2-yl)amino)-2-oxoethyl)phenoxy) nicotinamide]
5 | 12 nM | COc1ccn2nc(NC(=O)Cc3ccc(Oc4ncccc4C(N)=O)c(Cl)c3)nc2c1 [Example 125, 2-(2-chloro-4-(2-((7-methoxy-[1,2,4]triazolo-[1,5-a]pyridin-2-yl)amino)-2-oxoethyl)phenoxy)-nicotinamide]
6 | 98 nM | NC(=O)c1cccnc1Oc1ccc(CC(=O)N2CCc3cc(OCc4ccccc4)ccc32)cc1 [Example 059, 2-(4-(2-(5-(benzyloxy)indolin-1-yl)-2-oxoethyl)phenoxy) nicotinamide]
7 | 332 nM | CS(=O)(=O)c1ccc2nc(NC(=O)Cc3ccc(Oc4ncccc4C(N)=O)cc3)sc2c1 [Example 076, 2-(4-(2-((6-(methylsulfonyl)benzo[d]thiazol-2-yl)amino)-2-oxoethyl)phenoxy) nicotinamide]
8 | 7 nM | COc1ccn2nc(NC(=O)Cc3ccc(Oc4ncccc4C(N)=O)c(F)c3)nc2c1 [Example 008, 2-(2-fluoro-4-(2-((7-methoxy-[1,2,4]triazolo[1,5-a]pyridin-2-yl)amino)-2-oxoethyl)phenoxy)nicotinamide]
9 | 84 nM | Cc1sc(NC(=O)Cc2ccc(Oc3ncccc3C(N)=O)c(F)c2)nc1-c1ccc(S(C)(=O)=O)cc1 [Example 047, 2-(2-fluoro-4-(2-((5-methyl-4-(4-(methylsulfonyl)phenyl)thiazol-2-yl)amino)-2-oxoethyl)phenoxy)nico-tinamide]
10 | 176 nM | Cc1sc(NC(=O)Cc2ccc(Oc3ncccc3C(N)=O)c(F)c2)nc1-c1ccc(F)nc1 [Example 085, 2-(2-fluoro-4-(2-((4-(6-fluoropyridin-3-yl)-5-methylthiazol-2-yl)amino)-2-oxoethyl)phenoxy) nicotinamide]
11 | 89 nM | COc1ccc2nc(NC(=O)Cc3ccc(Oc4ncccc4C(N)=O)cc3)sc2c1 [Example 067, 2-(4-(2-((6-methoxybenzo[d]thiazol-2-yl)amino)-2-oxoethyl)phenoxy) nicotinamide]
12 | 35 nM | NC(=O)c1cccnc1Oc1ccc(CC(=O)Nc2cn3cc(Br)ccc3n2)cc1Cl [Example 009, 2-(4-(2-((6-bromoimidazo[1,2-a]pyridin-2-yl)amino)-2-oxoethyl)-2-chlorophenoxy)nicotinamide]
13 | 82 nM | NC(=O)c1cccnc1Oc1ccc(CC(=O)Nc2nc3cccc(C(F)(F)F)n3n2)cc1F [Example 126, 2-(2-fluoro-4-(2-oxo-2-((5-(trifluoro-methyl)-[1,2,4]-triazolo[1,5-a]-pyridin-2-yl)amino)-ethyl)phenoxy)-nicotinamide]
14 | 8 nM | Cn1nccc1-c1ccc2sc(NC(=O)Cc3ccc(Oc4ncccc4C(N)=O)c(F)c3)nc2c1 [Example 030, 2-(2-fluoro-4-(2-((5-(1-methyl-1H-pyrazol-5-yl)benzo[d]thiazol-2-yl)amino)-2-oxoethyl)phenoxy)nico-tinamide]
15 | 38 nM | Cc1nc(NC(=O)Cc2ccc(Oc3ncccc3C(N)=O)c(F)c2)sc1-c1ccccn1 [Example 012, 2-(2-fluoro-4-(2-((4-methyl-5-(pyridin-2-yl)thiazol-2-yl)amino)-2-oxoethyl)phenoxy)nic-otinamide]
16 | 419 nM | NC(=O)c1cccnc1Oc1ccc(CC(=O)Nc2nnc(-c3cccnc3)s2)cc1F [Example 090, 2-(2-fluoro-4-(2-oxo-2-((5-(pyridin-3-yl)-1,3,4-thiadiazol-2-yl)amino)ethyl)phe-noxy)nicotinamide]
17 | 650 nM | COc1cc(CC(=O)Nc2nc3cc(OCC(C)(C)O)ccc3s2)ccc1Oc1ncccc1C(N)=O [Example 118, 2-(4-(2-((5-(2-hydroxy-2-methylpropoxy)benzo[d]thiazol-2-yl)amino)-2-oxoethyl)-2-methoxyphenoxy)nicotinamide]
18 | 109 nM | COC(=O)c1ccc2sc(NC(=O)Cc3ccc(Oc4ncccc4C(N)=O)cc3)nc2c1 [Example 065, methyl 2-(2-(4-((3-carbamoylpyridin-2-yl)oxy)phenyl)acet-amido)benzo[d]thi-azole-5-carboxylate]

Row | IC50 | SMILES
19 | 1390 nM | CP(C)(=O)c1cccc2nc(NC(=O)Cc3ccc(Oc4ncccc4C(N)=O)c(F)c3)nn12 [Example 147]
20 | 21 nM | COc1ccc2c(c1)CCc1sc(NC(=O)Cc3ccc(Oc4ncccc4C(N)=O)cc3)nc1-2 [Example 053, 2-(4-(2-((7-methoxy-4,5-dihydronaphtho[1,2-d]thiazol-2-yl)amino)-2-oxoethyl)phenoxy) nicotinamide]
21 | 11 nM | Cc1nn(C)cc1-c1ccn2nc(NC(=O)Cc3ccc(Oc4ncccc4C(N)=O)c(F)c3)nc2c1 [Example 136, 2-(4-(2-((7-(1,3-dimethyl-1H-pyrazol-4-yl)-[1,2,4]-triazolo[1,5-a]pyridin-2-yl)amino)-2-oxoethyl)-2-fluorophen-oxy)nicotin-amide]
22 | 186 nM | NC(=O)c1cccnc1Oc1ccc(CC(=O)Nc2nc(-c3ccc4c(c3)OCCO4)cs2)cc1 [Example 057, 2-(4-(2-((4-(2,3-dihydrobenzo[b][1, 4]dioxin-6-yl)thiazol-2-yl)amino)-2-oxoethyl)phenoxy) nicotinamide]
23 | 1090 nM | COc1cc(C#N)c2c(c1)CCN2C(=O)Cc1ccc(Oc2ncccc2C(N)=O)cc1 [Example 056, 2-(4-(2-(7-cyano-5-methoxyindolin-1-yl)-2-oxoethyl)phenoxy) nicotinamide]
24 | 947 nM | CN1CCc2sc(NC(=O)Cc3ccc(Oc4ncccc4C(N)=O)c(F)c3)nc2C1 [Example 084, 2-(2-fluoro-4-(2-((5-methyl-4,5,6,7-tetrahydrothiazolo [4,5-c]pyridin-2-yl)amino)-2-oxoethyl)phenoxy) nicotinamide]
25 | 1110 nM | Cc1nnc(NC(=O)Cc2ccc(Oc3ncccc3C(N)=O)cc2)s1 [Example 055, 2-(4-(2-((5-methyl-1,3,4-thiadiazol-2-yl)amino)-2-oxoethyl)phenoxy) nicotinamide]
26 | 6 nM | COc1ccn2nc(NC(=O)Cc3ccc(Oc4ncccc4C(N)=O)c(Br)c3)nc2c1 [Example 119, 2-(2-bromo-4-(2-((7-methoxy-[1,2,4]triazolo[1,5-a]pyridin-2-yl)amino)-2-oxoethyl)phenoxy)nicotinamide]
27 | 10 nM | NC(=O)c1cccnc1Oc1ccc(CC(=O)Nc2nc3cc(F)ccc3n2CC2CC2)cc1Cl [Example 174, 2-(2-chloro-4-(2-((1-(cyclo-propylmethyl)-5-fluoro-1H-benzo[d]-imidazol-2-yl)-amino)-2-oxo-ethyl)phenoxy)-nicotinamide]
28 | 16 nM | NC(=O)c1cccnc1Oc1ccc(CC(=O)Nc2nc3ccc(C(F)(F)F)cc3n2CC2CC2)cc1Cl [Example 176, 2-(2-chloro-4-(2-((1-(cyclo-propylmethyl)-6-(trifluoro-methyl)-1H-benzo[d]-imidazol-2-yl)-amino)-2-oxo-ethyl)phenoxy)-nicotinamide]
29 | 1230 nM | CP(C)(=O)c1ccc2nc(NC(=O)Cc3ccc(Oc4ncccc4C(N)=O)c(F)c3)cn2c1 [Example 149, 2-(4-(2-((6-(dimethyl-phosphoryl)imidazo-[1,2-a]pyridin-2-yl)-amino)-2-oxoethyl)-2-fluorophenoxy)-nicotinamide]
30 | 16 nM | COc1cccc2c1nc(NC(=O)Cc1ccc(Oc3ncccc3C(N)=O)c(F)c1)n2CC1CC1 [Example 163, 2-(4-(2-((1-(cyclo-propylmethyl)-4-methoxy-1H-benzo[d]imidazol-2-yl)amino)-2-oxoethyl)-2-fluorophenoxy)-nicotinamide]
31 | 97 nM | NC(=O)c1cccnc1Oc1ccc(CC(=O)Nc2n[nH]c3ccccc23)cc1Cl [Example 122, 2-(4-(2-((1H-indazol-3-yl)-amino)-2-oxoethyl)-2-chlorophenoxy)-nicotinamide]
32 | 42 nM | NC(=O)c1cccnc1Oc1ccc(CC(=O)Nc2nc3ccccc3n2CCC(F)(F)F)cc1F [Example 154, 2-(2-fluoro-4-(2-oxo-2-((1-(3,3,3-trifluoropropyl)-1H-benzo[d]-imidazol-2-yl)-amino)ethyl)-phenoxy)nicotin-amide]
33 | 145 nM | COc1ccc(-c2csc(NC(=O)Cc3ccc(Oc4ncccc4C(N)=O)cc3)n2)cc1OC [Example 051, 2-(4-(2-((4-(3,4-dimethoxyphenyl)thiazol-2-yl)amino)-2-oxoethyl)phenoxy) nicotinamide]
34 | 6 nM | COc1cccn2nc(NC(=O)Cc3ccc(Oc4ncccc4C(N)=O)c(Cl)c3)nc12 [Example 082, 2-(2-chloro-4-(2-((8-methoxy-[1,2,4]triazolo[1,5-a]pyridin-2-yl)amino)-2-oxoethyl)phenoxy) nicotinamide]
35 | 25 nM | NC(=O)c1cccnc1Oc1ccc(CC(=O)Nc2nc3ccccc3n2CC2CC2)cc1F [Example 167, 2-(4-(2-((1-(cyclo-propylmethyl)-1H-benzo[d]-imidazol-2-yl)-amino)-2-oxo-ethyl)-2-fluoro-phenoxy)nicotin-amide]
36 | 126 nM | Cc1cnc(NC(=O)Cc2ccc(Oc3ncccc3C(N)=O)c(F)c2)s1 [Example 088, 2-(2-fluoro-4-(2-((5-methylthiazol-2-yl)amino)-2-oxoethyl)phenoxy) nicotinamide]
